From article PMC6934184, “Selective DNA-PKcs inhibition extends the therapeutic index of localized radiotherapy and chemotherapy” (The Journal of Clinical Investigation, 2019)

Target: T1, MAP4K3 (GLK) (Homo sapiens, UniProt Q8IVH8)
T1 construct: purchased Thermo Fisher Scientific (Life Technologies) SelectScreen
Experiment: SelectScreen LanthaScreen
Format: binding
Details: 1 µM
In short: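 NU5455 was profiled across the SelectScreen Broad panel of kinase activity and binding assays. Z'LYTE reactions such as CSF1R ran at apparent Km ATP, while the Adapta CAMK1 assay used ATP listed as 10. Values are given as percent.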

T1 sequence (Q8IVH8 whole entry): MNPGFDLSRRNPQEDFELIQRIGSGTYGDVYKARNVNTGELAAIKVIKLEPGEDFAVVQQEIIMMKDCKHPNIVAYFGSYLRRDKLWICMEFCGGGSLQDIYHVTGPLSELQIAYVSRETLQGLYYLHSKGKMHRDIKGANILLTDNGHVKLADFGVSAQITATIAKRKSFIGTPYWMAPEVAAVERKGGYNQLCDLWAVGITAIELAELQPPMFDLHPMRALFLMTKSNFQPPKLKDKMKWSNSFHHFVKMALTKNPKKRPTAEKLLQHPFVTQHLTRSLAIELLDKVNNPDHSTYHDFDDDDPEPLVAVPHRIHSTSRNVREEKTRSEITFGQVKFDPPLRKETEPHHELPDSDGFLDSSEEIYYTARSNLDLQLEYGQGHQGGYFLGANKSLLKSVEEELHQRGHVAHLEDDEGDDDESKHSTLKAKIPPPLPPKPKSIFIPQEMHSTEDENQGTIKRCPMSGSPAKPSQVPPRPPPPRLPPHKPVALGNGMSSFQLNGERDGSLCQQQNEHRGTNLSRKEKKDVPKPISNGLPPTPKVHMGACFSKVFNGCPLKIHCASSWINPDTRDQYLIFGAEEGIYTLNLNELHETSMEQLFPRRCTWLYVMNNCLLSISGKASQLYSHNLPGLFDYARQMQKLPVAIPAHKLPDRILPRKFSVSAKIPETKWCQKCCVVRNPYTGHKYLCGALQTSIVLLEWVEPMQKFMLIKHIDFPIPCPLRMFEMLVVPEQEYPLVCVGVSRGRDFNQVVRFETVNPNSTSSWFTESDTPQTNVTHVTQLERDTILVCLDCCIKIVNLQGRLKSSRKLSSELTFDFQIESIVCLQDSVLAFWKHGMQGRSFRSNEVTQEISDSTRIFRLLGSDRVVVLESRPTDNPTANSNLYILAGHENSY

Question: How did the “% displacement” value turn out when `CN(C(=O)CN1CCOCC1)c1ccc2sc3c(-c4cccc5c(=O)cc(N6CC7CCC(C6)O7)oc45)cccc3c2c1` [NU5455] was run?
Answer: -2.1%
